“Also recorded” adds a separate entry of the source.
Legend:
p53 [1] = experiment: suppression of p53-dependent transcriptional activation (lacZ, X-gal staining) in ConA cells treated with doxorubicin; assay type: cell-based, mouse; settings: 0.2 μg/ml doxorubicin, 24 hours; test compounds about 10 to about 20 μM
[2] = toxicity of chemotherapeutics with p53 inhibitor; settings: mouse, in vivo
[3] = system: p53-deficient tumor xenografts; experiment: therapy response of p53-deficient tumors in mice; assay type: in vivo, mouse; settings: mouse, in vivo
Excerpt: The above-described tests using PFT-α and PFT-β illustrate the therapeutic use of temporary p53 inhibitors to reduce the side effects of radiation therapy or chemotherapy for human cancers that have lost functional p53.

p53 [4] = experiment: tests and experiments of FIGS. 1–15 repeated using PFT-β
Excerpt: The results of these tests are illustrated in attached FIGS. 1–16. These figures, in general, are based on tests performed on compounds of structural formulae (V) and (VI). In the following Figures, test results illustrated for compound (V), i.e., PFT-α, were repeated for compound (VI), i.e., PFT-β.
(§1) As previously stated, the tests and experiments set forth in FIGS. 1–15 using PFT-α were repeated using PFT-β.

p53 [5] = experiment: long-term survival and cancer development of mice after whole body radiation; assay type: in vivo; settings: 30 survivors rescued from lethal gamma irradiation, seven months after irradiation
Procedure: Both wild-type (wt) mice and p53-deficient mice were irradiated. One group of the wild-type mice were treated with PFT-α. […] In contrast, fifteen untreated wild-type mice died within 100 days. The p53-deficient mice were unaffected for about 125 days, then all expired over the next 25–30 days.
Suppression of p53 typically results in the survival of cells that otherwise are eliminated by p53, which can increase the risk of new cancer development. For example, p53-deficient mice are extremely sensitive to radiation-induced tumorigenesis. […] Thus, temporary suppression of p53 activity is different from p53 deficiency in terms of cancer predisposition.

[6] = toxicity comparison (FIG. 16); settings: compared with PFT-α
Procedure: Then, a p53 inhibitor was applied in a concentration of 1 μM to 20 μM to the test cells in the presence of the p53 activator. Cytotoxicity of the p53 inhibitors also was determined by standard assays. An estimation of antiapoptotic activity of the p53 inhibitor compounds was based on an ability to suppress apoptotic cell death in standard cell systems sensitive to p53-dependent apoptosis (i.e., mouse embryonic fibroblasts transformed with Ela+ras, line C8, described by S. W. Lowe et al., Cell, 74, pp. 957–968 (1993)). p53 dependence of the compound activity was analyzed by testing its effect on p53-deficient cells (i.e., radiosensitivity or drug sensitivity of p53−/− mouse embryonic fibroblasts transformed with Ela+ras, line A4, described by Lowe et al., 1993).
as §1

p53 [7] = experiment: survival of mice after whole-body gamma irradiation; assay type: in vivo, mouse; settings: 2.2 mg/kg i.p. five minutes prior to irradiation
Procedure: In particular, FIG. 7 illustrates that pifithrin-alpha protects mice from radiation-induced death. In this test, two different strains of mice (C57BL and Balb(c)) were treated with lethal and sublethal doses of whole-body gamma radiation. A comparison was made between (i) untreated unirradiated mice, (ii) unirradiated mice that received a single intraperitoneal (i.p.) injection of PFT-α, (iii) untreated gamma-irradiated mice, and (iv) mice injected intraperitoneally with PFT-α immediately before gamma irradiation.
In the plots of FIG. 7, whole-body gamma irradiated mice (60 total) were divided into four groups. Ten mice from each group were injected i.p. with pifithrin-alpha (2.2 mg/kg) five minutes prior to irradiation. […] The experiments were repeated at least three times with 10 mice per each experimental subgroup.

p53 [8] = experiment: p53 protein in UV-irradiated ConA cells (immunoblotting, two-dimensional gel, nuclear and cytoplasmic fractions); assay type: cell-based, mouse
Procedure: PFT-α was added to the cells before UV treatment and total cell lysates were prepared 18 hours later.
FIG. 6(d) illustrates that PFT-α changes the nuclear and cytoplasmic distribution of p53. Nuclear and cytoplasmic fractions were isolated from UV-treated ConA cells 6 hours after UV irradiation. p53 and p21^waf1 proteins were detected by immunoblotting. […] In particular, results of a gel shift assay using cell lysates from either untreated or UV-irradiated ConA cells grown in medium containing PFT-α are shown. […] The decline in the amount of bound DNA is proportional to the overall decrease in p53 content in the presence of PFT-α.

p53 [9] = experiment: 14C-thymidine incorporation in tissues of gamma-irradiated mice (autoradiograms); assay type: in vivo, mouse; settings: 10 Gy; single i.p. injection 2.2 mg/kg five minutes before irradiation
Procedure: Four-week-old p53-deficient mice and p53 wild-type (wt) mice were whole body gamma irradiated (10 Gy). Pifithrin-alpha was injected in one of the p53 wild-type animals five minutes before irradiation. ^14C-thymidine (10 mCi per animal) was injected intraperitoneally into each mouse 8 hours after irradiation. The mice were sacrificed 24 hours after irradiation and whole body sectioned (25 μm thick) using cryostatic microtome were prepared and exposed to X-ray film to monitor the distribution of ^14C in the tissue. FIG. 8 presents autoradiograms of representative sections. Arrows indicate ^14C-thymidine incorporation in the skin and intestine.

tumor = tumor volume in C57BL mice treated with cyclophosphamide; assay type: in vivo, mouse; settings: CTX at days 0, 1, and 2, sixteen days
Procedure: FIG. 15 is a plot of tumor volume vs. days for C57BL mice treated with cyclophosphamide (CTX), with and without administration of PFT-β. The mice were treated with CTX at days 0, 1, and 2, and tumor volume was monitored for sixteen days.

N=c1sc2c(n1CC(=O)c1ccc(I)cc1)CCCC2 [86B10, 2-[2-imino-4,5,6,7-tetrahydro-1,3-benzothiazol-3(2H)-yl]-1-(4-iodophenyl)-1-ethanone]
suppression of p53-dependent lacZ expression (X-gal) (p53 [1]): similar, but weaker, p53-inhibition, effect than PFT-α

Cc1ccc(-c2cn3c4c(sc3n2)CCCC4)cc1 [PFT-β, 2-(4-methylphenyl)-5,6,7,8-tetrahydrobenzo[d]imidazo[2,1-b]thiazole]
toxicity of chemotherapeutics [2]: reduce the toxicity of chemotherapeutics | efficacy of chemo- or radiation therapy of p53 deficient mouse tumors [3]: do not reduce the efficacy of chemo- or radiation therapy of p53 deficient mouse tumors | test results compared with PFT-α (p53 [4]): essentially identical to test results using PFT-α; also recorded: essentially identical to the results from the tests using PFT-α | tumors or pathological lesions in survivors / tumor incidence in irradiated animals (p53 [5]): do not result in a high incidence of tumors in irradiated animals | toxicity [6]: substantially lower than the toxicity of PFT-α | survival at higher, lethal doses of irradiation (p53 [7]): rescue mice from lethal doses of gamma radiation using a single i.p. injection | nuclear and cytoplasmic distribution of p53 (p53 [8]; 6 hours after UV irradiation): reduce nuclear accumulation of p53 | phosphorylation / post-translational modifications of p53 (p53 [8]; after DNA-damaging treatments): do not effect either post-translational modifications of p53 or the DNA binding affinity of p53 | p53-mediated growth arrest in vivo (14C-thymidine incorporation) (p53 [9]): suppress p53-dependent radiation-induced growth arrest in rapidly proliferating mouse tissues | tumor growth (tumor volume) (tumor): substantial decrease in tumor growth

Reference: US6982277B2, “P53 inhibitors and therapeutic use of the same” (The Board of Trutees of the University of Illinois, priority 1999, dated 2006)
